Reference: US20240059739A1, “PEPTIDES FOR INCREASING DRUG DELIVERY TO CANCER” (Chapman University, priority 2022, published 2024)

The substances below were run on human melanoma cell lines (A375, Sk-mel-28, wm115) compared to normal human HEK-293 cells (assay: Peptide array-whole cell binding assay (CyQUANT fluorescence)). Details: average fluorescent intensity of melanoma cells (A375, Sk-mel-28, wm115) bound to peptide divided by that of HEK-293 cells bound to same peptide.
Type: cell-based
Description: Peptide array synthesis. Fifty-three peptide sequences were synthesized in duplicate on derivatized cellulose membrane (Intavis, Germany) using a ResPep SL Autospot robot. The detailed method was explained previously (Ahmed et al. Anal Chem. 82:7533-7541, 2010; Hossein-Nejad-Ariani et al. Sci Rep. 9:2723, 2019). Briefly, the sequences of peptides were entered in the robot software, and 384 spot synthesis mode was selected for this library. First, the membrane was dipped in DMF for an hour followed by transfer and support to the holder of the robot on filter paper. Then the membrane was washed with ethanol and subjected to a vacuum to remove any bubbles under the membrane. The Fmoc strategy was used for peptide synthesis. DIC and Oxyma pure were used as coupling reagent and racemization suppressor, respectively. After each coupling, capping of unreacted amino acids was done using acetic anhydride (3%), followed by 20% piperidine for Fmoc deprotection. The C-terminal end of all peptides were bound to the membrane. Following the synthesis, the membrane was dipped in deprotection solution containing 15 mL TFA, 15 mL DCM, 900 μL TIPS, and 600 μL water, and kept for 3 h at room temperature. Next, membranes were thoroughly washed with DCM, DMF, and ethanol. Finally, they were air dried and kept in a sealed bag at −20° C. until use.
Peptide array cell binding assay. The sequential steps of the assay are as described in a previous publication (Ahmed et al. 2010; Soudy et al. J Med Chem. 54:7523-7534, 2011). The membrane was dipped in ethanol for 30 sec to remove any precipitation of hydrophobic peptides. Then the membrane was dipped in sterile PBS at pH 7.4 for 30 min. The cells (75×10^3 cells/mL) were seeded directly on the membrane in a sterile plate and incubated at 37° C. for 4 h. After washing off the unbound cells with sterile PBS, pH 7.4, the membrane was frozen at −80° C. for 2 h. Subsequently, it was defrosted at room temperature and incubated in CyQUANT solution at 37° C. for 30 min following the manufacturer's protocol. The membrane was then washed with sterile PBS and air-dried.
Membranes were scanned using the ChemiDoc™ XRS+system (Bio-Rad) to analyze the fluorescence intensity of each spot. The setting was adjusted based on the excitation and emission wavelength of the CyQUANT dye at 465 nm and 535 nm, respectively. The fluorescence intensity (FI) was normalized by the FI of non-cancerous HEK-293 cells.
A library of 53 peptides was synthesized in an array format on a cellulose membrane using SPOT synthesis (Table 1). The peptide library was designed starting with five lead cancer cell targeting peptides, Arg peptide (1, Table 1), p160 analogue (11), RGD (16), GE11 (20), and LSD (37). Conservative substitutions, deletion from the N- or C-terminus, alanine scan, and scrambling of amino acids were used to design the analogues for the library. The peptides were screened for specific binding to three human melanoma cell lines. The cells were incubated with the cellulose membranes with conjugated peptides followed by incubation with CyQUANT fluorescence dye. A brief schematic for the peptide array-whole cell binding assay for screening peptides with high affinity for melanoma cells is shown in FIG. 2A. The relative cell adhesion capacities of the peptides to A375 (FIG. 2B), Sk-mel-28 (FIG. 2C), and wm115 were estimated based on the fluorescence of the bound melanoma cells compared to normal human HEK-293 cells.

| Substance | Fluorescence Ratio |
| --- | --- |
| ADRSKGKLA [Peptide 39] | 1.27 |
| AGRKLDSKA [Peptide 38] | 1.39 |
| AHWYGYTPQNVI [Peptide 23] | 1.31 |
| ALSDGKRKA [Peptide 40] | 1.23 |
| ALSGKRKC [Peptide 41] | 1.32 |
| CASDGKRKC [Peptide 42] | 1.25 |
| CLADGKRKC [Peptide 43] | 1.26 |
| CLSAGKRKC [Peptide 44] | 1.44 |
| CLSDAKRKC [Peptide 45] | 1.22 |
| CLSDGARKC [Peptide 46] | 1.35 |
| CLSDGKAKC [Peptide 47] | 1.27 |
| CLSDGKRAC [Peptide 48] | 1.12 |
| CLSDGKRKA [Peptide 49] | 1.57 |
| CLSDGKRKC [Peptide 37] | 1.29 |
| CLSDGKRRC [Peptide 52] | 1.27 |
| CLSDGRRKC [Peptide 51] | 1.32 |
| CLSEGKRKC [Peptide 50] | 1.38 |
| EPAAYQRFTA [Peptide 13] | 1.39 |
| FVPWLEAPYA [Peptide 15] | 1.61 |
| GARPRPRPRP [Peptide 6] | 1.37 |
| GRAPRPRPRP [Peptide 7] | 1.47 |
| GRRPAPRPRP [Peptide 8] | 1.57 |
| GRRPRPAPRP [Peptide 9] | 1.51 |
| GRRPRPRPAP [Peptide 10] | 1.31 |
| GRRPRPRPRPW [Peptide 2] | 1.60 |
| GRRPRPRPRPWW [Peptide 3] | 1.50 |

| Substance | Fluorescence Ratio |
| --- | --- |
| GRRPRPRPRPWWW [Peptide 4] | 1.46 |
| GRRPRPRPRPWWWW [Peptide 5] | 1.43 |
| RGDAAYQRFL [Peptide 16] | 1.47 |
| RGDPAYQGRFL [Peptide 19] | 1.35 |
| RGEPAYQGRFL [Peptide 18] | 1.24 |
| RGEPAYQRFL [Peptide 17] | 1.30 |
| RVPWLEAPYA [Peptide 14] | 1.42 |
| WLSDGKRKC [Peptide 53] | 1.12 |
| WQTNYIHPYVYG [Peptide 21] | 1.21 |
| WXEAAYQRFL [Peptide 12] | 1.31 |
| YAWYGYTPQNVI [Peptide 24] | 1.15 |
| YGPWYNHYITQV [Peptide 22] | 1.28 |
| YHAYGYTPQNVI [Peptide 25] | 1.28 |
| YHWAGYTPQNVI [Peptide 26] | 1.29 |
| YHWYGATPQNVI [Peptide 27] | 1.19 |
| YHWYGTPQNVI [Peptide 20] | 1.20 |
| YHWYGYAPQNVI [Peptide 28] | 1.26 |
| YHWYGYTAQNVI [Peptide 29] | 1.32 |
| YHWYGYTPANVI [Peptide 30] | 1.30 |
| YHWYGYTPENVI [Peptide 34] | 1.36 |
| YHWYGYTPQAVI [Peptide 31] | 1.33 |
| YHWYGYTPQDVI [Peptide 35] | 1.35 |
| YHWYGYTPQKVI [Peptide 36] | 1.23 |
| YHWYGYTPQNAI [Peptide 32] | 1.29 |
| YHWYGYTPQNVA [Peptide 33] | 1.35 |

What follows are substances tested on human melanoma A375 tumor xenografts and organs (assay: In vivo and ex vivo imaging of biodistribution in mice bearing A375 xenografts). Details: ex vivo imaging.
Design: species or system athymic nude mice
Experimental: FIG. 4A and FIG. 4B-1 and FIG. 4B-2 show in vivo and ex vivo organ distribution images of VivoTag 680 XL-labeled D-aa KK-11 in athymic nude mice bearing human melanoma A375 tumors. Saline or VivoTag-KK-11 in a dose of 8 μg per mouse was injected into the mice via the tail vein (n=2 for each time point).
The top panels represent the scanned images of the tumor section area in coronal views. The bottom-row pictures display the fluorescence image in trans-axial views: arrows point to the spine, and circles mark the xenograft tumors.
Organs including tumor xenografts (T), liver (L), spleen (S), heart and lungs (H+L), kidneys (K), and brain (B) were excised and imaged using the IVIS Spectrum imaging system. Representative fluorescence images of different organs show peptide distribution at different time points as indicated.
Ex vivo and in vivo imaging. The study was carried out in compliance with Animal Research: Reporting of In Vivo Experiments (ARRIVE) guidelines. All the animal procedures were approved by the Institutional Animal Care and Use Committee (IACUC) at Chapman University and conducted in compliance with the policies of Chapman University, and federal, state, and local animal welfare authorities. Male and female athymic nude mice (4-6 weeks old) were kept (5 in each cage) in a pathogen-free environment. Approximately 10^6 human melanoma A375 cells (0.1 mL in normal saline), mixed with 0.1 mL cold Matrigel (#354248; Corning, Corning, NY), were injected subcutaneously in the flank. The tumor size was measured with a caliper, and body weight was recorded once a week. When the tumor size reached approximately 800-1000 mm^3 as calculated using the following formula: [Length×(Width^2)]/2 (in mm), mice were processed for in vivo or ex vivo imaging.
For in vivo imaging, normal saline or VivoTag-KK-11 at a dose of 8 μg per mouse was injected into the mice via the tail vein (n=2 for each time point). The animals were then scanned at different time intervals (0.5, 2, 6, and 24 h) using an IVIS Spectrum in vivo imaging system (PerkinElmer, Waltham, MA). The mice were imaged for 0.5 sec, 10 bin, level B at an emission wavelength of 688±5 nm. Imaging was limited to no more than once a day and was conducted under continuously maintained isoflurane. Mice were maintained on alfalfa-free diets to minimize the background fluorescence. All the study animals survived through the in vivo imaging procedure.
For ex vivo imaging at defined time intervals (5, 15, 30 min, followed by 1, 1.5, 2, 3, 4, 6, 24, and 48 h) following fluorescence conjugate injection, animals were euthanized via carbon dioxide inhalation (n=2 for each time point); tumor, liver, spleen, heart, lungs, brain, and kidneys were collected and briefly rinsed with saline. The organs were then imaged for 0.5 sec, 10 bin, level B at an emission wavelength of 688±5 nm using an IVIS Spectrum imaging system.

| Substance | brain penetration | time by which cleared from other organs (lungs, heart, spleen) [h] | time detected in kidneys |
| --- | --- | --- | --- |
| VivoTag- Aβ-VPWxEPAYQrFL [VivoTag-KK-11] | no brain penetration was observed | ≤ 6 | up to 48 h |

Same assay, conditions: ex vivo imaging, 8 μg per mouse, tail vein

| Substance | time at which fluorescence is evident in tumor xenografts [min] |
| --- | --- |
| VivoTag- Aβ-VPWxEPAYQrFL [VivoTag-KK-11] | ≤ 5 |

Same assay, conditions: in vivo IVIS CT-fluorescence imaging of live mice

| Substance | time by which distributed to the xenograft tumor [min] | time fluorescence remained detectable in tumor xenografts [h] |
| --- | --- | --- |
| VivoTag- Aβ-VPWxEPAYQrFL [VivoTag-KK-11] | ≤ 30 | 25 |
